Measurements taken from patent publication US9765061B2, “Trail enhancers for the selective killing of cancer cells” (The Scripps Research Institute, priority 2013, dated 2017).

How the values were obtained:
[1] = tested on: primary human hepatocytes; assay: Viability and apoptosis of primary human hepatocytes from normal donors; format: cell-based
Method: FIG. 8: Safety and pro-apoptotic. activity of (C12). Cells were incubated with TRAIL, (C12), […] (Bor) or a combination of TRAIL and (C12) or Bor as indicated, and cell viability (top panels) or the cleavage of PARP (bottom panels) was determined. (A) Lung cancer cell line A549. (B) Primary human hepatocytes from normal donor.
Therefore, to assess a potential utility of C12 for anti-cancer therapy, we compared the effects of these two compounds—(C12) and bartezomid (Bor)—on TRAIL-mediated apoptosis in cancerous A549 cells and primary human hepatocytes.
Cancer and normal cell culture. Lung cancer cell line A549 and colon cancer cell line HT29 were purchased from ATCC. Breast cancer cell line MDA-MB-468 was received from J. C. Reed (The Burnham Institute, La Jolla, Calif.). Cell lines were maintained in growth medium (GM): DMEM medium (4.5 g/l glucose) supplemented with 10% FBS (HyClone, Logan, Utah), L-glutamine, penicillin/streptomycin and nonessential ammo acids (Invitrogen, Carlsbad, Calif.). Normal human bronchial epithelial (NHBE) cells and normal human mammary epithelial (NHME) cells were obtained from Cambrex (East Rutherford, N.J.) and cultured as recommended by the manufacturer. Normal human colon smooth muscle cells were obtained from ScienCell Research Lab (San Diego, Calif.) and cultured as recommended by the manufacturer. Primary cultures of human hepatocytes (freshly plated; not cryopreserved) and culture medium were obtained from Celsis In Vitro Technologies (Baltimore, Md.). Upon receipt of the cells, the medium was gently aspirated from each well and replenished with InVitroGRO HI medium supplemented with Torpedo Antibiotic Mix (Celsis), and the plates were kept in a 5% CO2, at 37° C. in an incubator at saturating humidity. After 2-4 h, cells were stimulated as described in the text and FIG. legends.
(§1) Cytotoxicity was determined by using the XTT-based toxicology assay kit (Sigma, St. Louis, Miss.) in accordance with the manufacturer's instructions. For some experiments, to confirm the apoptotic nature of toxicity, cells were analyzed using protocols and instructions of the Annexin V-FITC apoptosis detection kit (Biovision, Mountain View, Calif.). In addition, caspase 3, 8 and 9 activities were determined by colorimetric assays (R&D System), and the data are expressed as fold increases compared to the values of untreated or control-treated cells (n=5).

A549 cell line = assay: Viability of A549 cells, XTT-based assay, with or without TRAIL; format: cell-based, human
Method: FIG. 4: C12 sensitizes long cancer cell line A549 to TRAIL. (A) Viability of cells was examined after 24-hour incubation in media containing TRAIL (50 ng/ml), compound (C12) (1 μM), compound (C12R) (25 μM) or the indicated combination of TRAIL (T) with (C12) or (C12R). The chemical structures of (C12) and its stereoisomer (C12R) are shown on the right. (B) Viability of cells was examined after 24-hour incubation in media, containing TRAIL (50 ng/ml) and the indicated doses of C12. Viable cells remaining after the treatment were determined as a function of mitochondrial activity of living cells according to XTT-based toxicology assay kit (Sigma) and are shown as a percentage of viable untreated cells.
To test this hypothesis, we examined the effect of C12 in vitro on the activity of TRAIL against A549 cell line derived from a cancer sample of the human lung.
as §1

sXBP1 (UPR) = assay: RT-PCR assay of spliced XBP1 mRNA (sXBP1) in macrophages; format: cell-based, mouse; details: FIG. 1D and 1E
From the text: FIG. 1: C12 induces the UPR in mammalian cells. (A and B). Comparison of the macrophage responsiveness to P. aeruginosa (P.a.), S. typhimurium (S.t), and S. aureus (S.a.). RT-PCR assay of XBP1 (A) and Western blot analysis (B) of p38, its phosphorylated form (p-p38) as well as phosphorylated forms of PERK (p-PERK) and eIF2α (p-eIF2α) in cell extracts after treatment with bacteria are shown. (C) Macrophages were stimulated with P. aeruginosa wild type (wt) or lasI mutant (ΔlasI), and cell extracts (total RNA or total protein) were prepared and analyzed as in (A and B). […] (F) Total RNA was prepared from lung of mice after inoculation of vehicle (-) or (C12) and analyzed in (D). […]
Among key biochemical signatures of the multicomponent ER stress pathway, known as the unfolded protein response (UPR), are the phosphorylation of the α-subunit of eukaryotic translation initiation factor-2 (eIF2α) and activation of the transcription factor XBP1/Hac1 (X-box binding protein-1 in metazoans and homologous to ATF/CREB in yeast, respectively) ^11. […] To initiate our studies, we exposed bone marrow-derived macrophages (BMDM) to these bacteria, and macrophage responsiveness was analyzed for biochemical markers of the UPR and the phosphorylation of the mitogen-activated protein kinase p38, as a common marker of TLR pathways. […]

cancerous cells = assay: Sensitization of cancerous cells to TRAIL-mediated apoptosis (SAR panel); format: cell-based; details: a number of cancerous cells
From the text: Since (C12) is a prototypic member of the 3-oxo-AHL family, the structure-activity-relation (SAR) investigations were warranted to determine generic structural features of AHL, which are required for a cancer-stop and cancer preventing activity as well as for activation of the UPR. To address this questions, a set of AHLs and their analogs were synthesized (see List of AHLs and analogs), and the biological activity of ail compounds were examined on a panel of cancerous and normal cells. The prototypic examples of biochemical data for the selected analogs are shown in FIG. 9 and FIG. 10, whereas Table 2 summarizes the SAR studies for all compounds.
(§2) Cell stimulation. In all experiments, BMDM were stimulated with LPS (100 ng/ml), AHL (10-25 μM; usually BMDM and primary macrophages were stimulated by 25 μM of C12) or their combination as indicated in the figure legends. If not indicated, cancer and normal cells were stimulated with 40 ng/ml of TNFα, 20 ng/ml TRAIL and 10 μM (in case of cancer cells) or 25 μM (in case of normal cells) of AHL.

[2] = tested on: bone marrow-derived macrophages (BMDM); assay: Responses of bone marrow-derived macrophages to AHLs (toxicity, Western blot); format: cell-based, mouse
Method: FIG. 13. AHL-mediated inhibition of inflammation-induced NF-κB signaling is sufficient for rendering tumors susceptible to TRAIL-induced apoptosis. a) Western blot analysis of PARP cleavage in cancer cells stimulated for 3 h with TRAIL or its combination with different AHLs as indicated, b) Western blot analysis of PARP cleavage as well as phosphorylated forms of eIF2α and p38 in extracts from bone marrow-derived macrophages (BMDM) stimulated with (C12) or (3-N2), i.e., (S)-(3-N2), as indicated, c) Western blot analysis of PARP cleavage and temporal profiles of IκBα expression in BMDM extracts prepared after treatment with LPS or its combination with (C12) or (3-N2). d) Inhibitory effect of (C12) and its derivatives on LPS-induced TNF production in BMDM. e) Lung cancer cells were exposed to (3-N2) (10 μM), TRAIL (0.5 ng/ml), TNF (20 ng/ml) or their combinations as indicated. After 2 h, cell lysates were prepared and analyzed by Western blot for PARP cleavage, IκBα and actin.
Mice, bone marrow-derived macrophages and other cell culture, C57BL/6 mice were purchased from the Jackson Laboratory (Bar Harbor, Me.). Bone marrow-derived macrophages (BMDM) and murine embryonic fibroblasts (MEF) were prepared by using standard protocols that were approved by the TSRI Animal Care and Use Committee. L929/NCTC clone 929 (connective tissue, mouse) cell lines were purchased from ATCC (Manassas, Va.). MEFs and L929 cell line were maintained in GM (see above). BMDM were cultured in 70% GM and 30% L929 conditioned medium. In general, cells (˜60-70% confluence) were incubated in fresh medium for 12-14 h before stimulation.
Antibodies and Western blot analysis. Anti-eIF2α, phospho-eIF2α[…](p-eIF2α), p38, p-p38 (Thr180/Tyr132), p-RelA (Ser536), p-I κB ? 32/36), PARP 20 antibodies were purchased from Cell Signaling; anti-RelA, I κB α, IκBβ were from Santa Cruz Biotechnology. Cellular extracts were prepared and analyzed by Western blot assay as previously described.^E3
as §2

[3] = tested on: TRAIL-treated lung cancer cells; assay: Toxicity against TRAIL-treated lung cancer cells; format: cell-based
Method: Considering the potential inherent pharmacokinetic liabilities associated with C12, a small series of compound (C12) analogues was tested against bone marrow-derived macrophages and TRAIL-treated lung cancer cells.
Cancer and normal cell culture. Lung cancer cell line A549 and colon cancer cell line HT29 were purchased from ATCC. Breast cancer cell line MDA-MB-468 was received from J. C. Reed (The Burnham Institute, La Jolla, Calif.). Cell lines were maintained in growth medium (GM): DMEM medium (4.5 g/l glucose) supplemented with 10% FBS (HyClone, Logan, Utah), L-glutamine, penicillin/streptomycin and nonessential ammo acids (Invitrogen, Carlsbad, Calif.). […]
as §1

cancer and normal cells = assay: XTT-based viability of cancer and normal cells grown 18 h (FIG. 12); format: cell-based; details: TRAIL alone or the same doses of C12 without TRAIL
Method: FIG. 12. (C12) promotes the TRAIL-mediated killing of cancer cells, a), c) Western blot analysis of PARP cleavage in cancer or normal cells treated for 3 h with TRAIL, (C12) or a combination of both, as indicated, b), d) XTT-based assay monitoring the viability of cancer and normal cells grown for 18 h in media containing TRAIL and the indicated doses of (C12). Cell survival was ˜100% in control samples (untreated cells) as well as in samples incubated with TRAIL alone or the same doses of (C12) without TRAIL.
Cancer and normal cell culture. Lung cancer cell line A549 and colon cancer cell line HT29 were purchased from ATCC. Breast cancer cell line MDA-MB-468 was received from J. C. Reed (The Burnham Institute, La Jolla, Calif.). […]
as §1

**Q.** For `CC(C)C[C@H](NC(=O)[C@H](Cc1ccccc1)NC(=O)c1cnccn1)B(O)O` [Bor, bortezomib, reference compound], which “toxicity and apoptosis in hepatocytes in the presence of TRAIL” value ([1]; FIG. 8B) is on record?
**A.** substantially enhanced

**Q.** And the “toxicity toward hepatocytes, drug alone” value ([1]; FIG. 8B)?
**A.** relatively low levels of toxicity

**Q.** What about the “sensitivity of A549 cells to TRAIL in the presence of compound” value (A549 cell line; FIG. 8A) of the same compound?
**A.** comparable increase in sensitivity

**Q.** With `CCCCCCCCCC(=O)CC(=O)N[C@@H]1CCOC1=O` [Compound 2] as the compound, how does the “cell growth and viability, compound alone” value (A549 cell line; C12 1 μM or 25 μM, C12R 25 μM, no TRAIL) read?
**A.** practically unchanged

**Q.** What about the “cell growth and viability, combination with TRAIL” value (A549 cell line; TRAIL (50 ng/ml) and C12R (25 μM)) of the same compound?
**A.** practically unchanged

**Q.** And the “induction of sXBP1 / activation of the UPR” value (sXBP1 (UPR))?
**A.** ineffective

**Q.** How did the “sensitization of cancerous cells to TRAIL-mediated apoptosis” value (cancerous cells) turn out when `[N-]=[N+]=NCCCCCCCCCC(=O)CC(=O)N[C@H]1CCOC1=O` [Compound 13] was run?
**A.** strongly sensitize

**Q.** Which results are given for `CCCCCCCCCC1(CC(=O)N[C@H]2CCOC2=O)N=N1` [Compound 15]?
**A.** PARP cleavage in macrophages ([2]; Western blot, FIG. 13b): did not induce; eIF2α phosphorylation in macrophages ([2]; Western blot, FIG. 13b): induced eIF2α phosphorylation in a similar fashion; p38 phosphorylation in macrophages ([2]; Western blot, FIG. 13b): did not induce; toxicity to macrophages ([2]; bone marrow-derived macrophages): nontoxic; blocking LPS-induced re-synthesis of IκBα ([2]; macrophages activated by LPS, FIG. 13c): equally effective; toxicity to human hepatocytes, compound alone or in combination with TRAIL ([1]; hepatocytes from normal donors): non-toxic; sensitization of cancerous cells to TRAIL-mediated apoptosis (cancerous cells): strongly sensitize; synergistic effects on TRAIL-induced apoptosis in cancer cells ([3]; compared with bortezomib): comparable with those for an anti-cancer agent bortezomib; toxicity against TRAIL-treated cancer cells ([3]; in the presence of TRAIL): exhibited toxicity

**Q.** For `[N-]=[N+]=NCCCCCCCCCC1(CC(=O)N[C@H]2CCOC2=O)N=N1` [Compound 16], which “sensitization of cancerous cells to TRAIL-mediated apoptosis” value (cancerous cells) is on record?
**A.** strongly sensitize

**Q.** Which “viability of normal human hepatocytes, TRAIL alone” value ([1]; FIG. 8B) does the source give for “TRAIL: recombinant human tumor necrosis factor-related apoptosis-inducing ligand, purchased from R&D System” here?
**A.** unchanged

**Q.** And the “viability and growth, TRAIL alone” value (A549 cell line; TRAIL 50 ng/ml)?
**A.** did not significantly affect

**Q.** And the Cell survival (cancer and normal cells)?
**A.** ~100%
